Test system: M17_3TAU(P301L) cells
Assay: TAU-induced cytotoxicity (LDH) in the neuroblastoma tauopathy model
Format: cell-based
Conditions: Homo sapiens, 168 h, inhibition of TAU-induced toxicity, 7 days retinoic acid differentiation, LDH readout
Method in brief: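 Stably transfected BE-M17 cells expressing human TAU-P301L, seeded in serum-free detection medium, then differentiated with 2.5 μM RA (added in equal volume) for 7 days at 37° C/5% CO2 to induce TAU aggregation. Cytotoxicity = supernatant LDH increase over total LDH; EC50 from dose-dependent inhibition curves.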

Cc1nc(CN2CC3(C2)CN(C(=O)CC2CCC(F)(F)CC2)C3)c(Cl)s1 [Cpd B117]
EC50: 0.00381 µM

CCn1ccc(CN2CC3(C2)CN(C(=O)CC2CCC(F)(F)CC2)C3)n1 [Cpd B118]
EC50: 0.0278 µM

Cn1cc(CN2CC3(C2)CN(C(=O)CC2CCC(F)(F)CC2)C3)cn1 [Cpd B119]
EC50: 0.046 µM

Cn1cc(Cl)c(CN2CC3(C2)CN(C(=O)CC2CCC(F)(F)CC2)C3)n1 [Cpd B120]
EC50: 0.00427 µM

Cc1c(Cl)c(CN2CC3(C2)CN(C(=O)CC2CCC(F)(F)CC2)C3)nn1C [Cpd B121]
EC50: 0.0125 µM

Cc1nn(C)c(CN2CC3(C2)CN(C(=O)CC2CCC(F)(F)CC2)C3)c1Cl [Cpd B122]
EC50: 3.73 µM

Cc1[nH]cnc1CN1CC2(C1)CN(C(=O)CC1CCC(F)(F)CC1)C2 [Cpd B124]
EC50: 0.0544 µM

Cc1nc(CN2CC3(C2)CN(C(=O)CC2CCC(F)(F)CC2)C3)c[nH]1 [Cpd B125]
EC50: 0.705 µM

Cn1cnc(CN2CC3(C2)CN(C(=O)CC2CCC(F)(F)CC2)C3)c1 [Cpd B126]
EC50: 0.192 µM

Cc1nc(CN2CC3(C2)CN(C(=O)CC2CCC(F)(F)CC2)C3)co1 [Cpd B127]
EC50: 0.0676 µM

O=C(OCC1CCOCC1)N1CC2(CN(Cc3ccc(F)cc3)C2)C1 [Cpd B128, (tetrahydro-2H-pyran-4-yl)methyl 6-(4-fluorobenzyl)-2,6-diazaspiro[3.3]heptane-2-carboxylate]
EC50: 0.126 µM

O=C(OCC12CC(F)(C1)C2)N1CC2(CN(Cc3ccc(F)cc3)C2)C1 [Cpd B129]
EC50: 0.097 µM

O=C(OCc1ccc(Cl)cc1)N1CC2(CN(Cc3ccc(F)cc3)C2)C1 [Cpd B130]
EC50: 0.0133 µM

O=C(OCC1CCCC1)N1CC2(CN(Cc3ccc(F)cc3)C2)C1 [Cpd B131]
EC50: 0.00438 µM

O=C(OCC1CCC(F)(F)CC1)N1CC2(CN(Cc3ccc(F)cc3)C2)C1 [Cpd B132]
EC50: 0.00316 µM

O=C(OC1CCC(F)(F)CC1)N1CC2(CN(Cc3ccc(F)cc3)C2)C1 [Cpd B133]
EC50: 0.0029 µM

COc1cccc(CN2CC3(C2)CN(C(=O)OC2CCC(F)(F)CC2)C3)c1 [Cpd B135]
EC50: < 0.00019 µM

Cc1nc(CN2CC3(C2)CN(C(=O)OCC24CC(F)(C2)C4)C3)cs1 [Cpd B136]
EC50: 0.671 µM

Cc1cccnc1CN1CC2(C1)CN(C(=O)OCc1ccc(Cl)cc1)C2 [Cpd B137]
EC50: 0.0493 µM

Cc1cccnc1CN1CC2(C1)CN(C(=O)OC1CCCC1)C2 [Cpd B138]
EC50: 0.888 µM

Cc1cccnc1CN1CC2(C1)CN(C(=O)OC1CCC(F)(F)CC1)C2 [Cpd B139]
EC50: 0.0206 µM

COc1cccc(CN2CC3(C2)CN(C(=O)Oc2ccc(F)cc2)C3)c1 [Cpd B140, 4-fluorophenyl 6-(3-methoxybenzyl)-2,6-diazaspiro[3.3]heptane-2-carboxylate]
EC50: 0.0015 µM

Cc1cccnc1CN1CC2(C1)CN(C(=O)Oc1ccc(Cl)cc1)C2 [Cpd B141]
EC50: 0.00257 µM

Cn1ncc(Cl)c1CN1CC2(C1)CN(C(=O)OC1CCC(F)(F)CC1)C2 [Cpd B142, 4,4-difluorocyclohexyl 6-((4-chloro-1-methylpyrazol-5-yl)methyl)-2,6-diazaspiro[3.3]heptane-2-carboxylate]
EC50: 0.864 µM

Cc1nc(CN2CC3(C2)CN(C(=O)OC2CCC(F)(F)CC2)C3)co1 [Cpd B143]
EC50: 0.109 µM

Cn1ncc(CN2CC3(C2)CN(C(=O)OC2CCC(F)(F)CC2)C3)c1Cl [Cpd B144]
EC50: 0.0865 µM

Cn1cc(Cl)c(CN2CC3(C2)CN(C(=O)OC2CCC(F)(F)CC2)C3)n1 [Cpd B145]
EC50: 0.00278 µM

Cc1csc(CN2CC3(C2)CN(C(=O)OC2CCC(F)(F)CC2)C3)c1 [Cpd B146]
EC50: < 0.00019 µM

O=C(OC1CCC(F)(F)CC1)N1CC2(CN(Cc3ccccc3C(F)(F)F)C2)C1 [Cpd B147]
EC50: 0.00325 µM

O=C(OC1CCC(F)(F)CC1)N1CC2(CN(Cc3c(F)cccc3C(F)(F)F)C2)C1 [Cpd B148]
EC50: 0.396 µM

O=C(OC1CCC(F)(F)CC1)N1CC2(CN(Cc3ccccc3OC(F)F)C2)C1 [Cpd B149]
EC50: 0.00758 µM

O=C(OC1CCC(F)(F)CC1)N1CC2(CN(Cc3ccc(Cl)cc3F)C2)C1 [Cpd B150]
EC50: < 0.00019 µM

O=C(OC1CCC(F)(F)CC1)N1CC2(CN(Cc3ccc(F)cc3Cl)C2)C1 [Cpd B151]
EC50: 0.00052 µM

O=C(OC1CCC(F)(F)CC1)N1CC2(CN(Cc3ccc(F)cc3F)C2)C1 [Cpd B152]
EC50: 0.00276 µM

O=C(OC1CCC(F)(F)CC1)N1CC2(CN(Cc3ccc(F)cn3)C2)C1 [Cpd B153]
EC50: 0.0372 µM

O=C(OC1CCC(F)(F)CC1)N1CC2(CN(Cc3ncccc3Cl)C2)C1 [Cpd B154]
EC50: 0.00781 µM

O=C(OC1CCC(F)(F)CC1)N1CC2(CN(Cc3ncccc3C(F)(F)F)C2)C1 [Cpd B155]
EC50: 0.00467 µM

Cc1nc(CN2CC3(C2)CN(C(=O)OCC2CCC(F)(F)CC2)C3)cs1 [Cpd B156]
EC50: 0.0833 µM

Cn1cc(CN2CC3(C2)CN(C(=O)OCC2CCC(F)(F)CC2)C3)c(Cl)n1 [Cpd B157]
EC50: 0.00933 µM

Cn1ncc(CN2CC3(C2)CN(C(=O)OCC2CCC(F)(F)CC2)C3)c1Cl [Cpd B158]
EC50: 0.0653 µM

Cn1cc(Cl)c(CN2CC3(C2)CN(C(=O)OCC2CCC(F)(F)CC2)C3)n1 [Cpd B159]
EC50: 0.00229 µM

O=C(OCC1CCC(F)(F)CC1)N1CC2(CN(Cc3ncccc3Cl)C2)C1 [Cpd B160]
EC50: 0.00368 µM

O=C(OCC1CCC(F)(F)CC1)N1CC2(CN(Cc3ccc(F)cn3)C2)C1 [Cpd B161]
EC50: 0.0493 µM

O=C(OCC1CCC(F)(F)CC1)N1CC2(CN(Cc3ncccc3F)C2)C1 [Cpd B162]
EC50: 0.0516 µM

O=C(OCC1CCC(F)(F)CC1)N1CC2(CN(Cc3ncccc3C(F)(F)F)C2)C1 [Cpd B163]
EC50: 0.00367 µM

O=C(OCC1CCC(F)(F)CC1)N1CC2(CN(Cc3ccc(C(F)(F)F)cc3)C2)C1 [Cpd B164]
EC50: 0.0191 µM

O=C(OCC1CCC(F)(F)CC1)N1CC2(CN(Cc3ccccc3C(F)(F)F)C2)C1 [Cpd B165]
EC50: 0.00249 µM

O=C(OCC1CCC(F)(F)CC1)N1CC2(CN(Cc3ccc(F)cc3C(F)(F)F)C2)C1 [Cpd B166]
EC50: 0.00074 µM

O=C(NCC1CCC(F)(F)CC1)N1CC2(CN(Cc3ccc(F)cc3)C2)C1 [Cpd B167, N-((4,4-difluorocyclohexyl)methyl)-6-(4-fluorobenzyl)-2,6-diazaspiro[3.3]heptane-2-carboxamide]
EC50: 0.00417 µM

O=C(NC1CC(F)(F)C1)N1CC2(CN(Cc3ccc(F)cc3)C2)C1 [Cpd B168]
EC50: 0.78 µM

O=C(NCC1CCOCC1)N1CC2(CN(Cc3ccc(F)cc3)C2)C1 [Cpd B169]
EC50: 0.881 µM

Cc1cccnc1CN1CC2(C1)CN(C(=O)NC1CC(F)(F)C1)C2 [Cpd B170]
EC50: 3.45 µM

Cc1cccnc1CN1CC2(C1)CN(C(=O)NC1CCC(F)(F)CC1)C2 [Cpd B171]
EC50: 0.0778 µM

Cc1nc(CN2CC3(C2)CN(C(=O)N(C)C2CCC(F)(F)CC2)C3)cs1 [Cpd B172]
EC50: 0.102 µM

COc1cccc(CN2CC3(C2)CN(C(=O)NCc2cccc(C(F)(F)F)c2)C3)c1 [Cpd B173]
EC50: 0.0303 µM

Cc1nc(CN2CC3(C2)CN(C(=O)Nc2cccc(C(F)(F)F)c2)C3)cs1 [Cpd B176]
EC50: 0.0734 µM

Cc1cccnc1CN1CC2(C1)CN(C(=O)NCC1CCCCC1)C2 [Cpd B177]
EC50: 0.00539 µM

Cc1cccnc1CN1CC2(C1)CN(C(=O)NC1CCCCC1)C2 [Cpd B178]
EC50: 0.128 µM

Cc1cccnc1CN1CC2(C1)CN(C(=O)Nc1ccc(Cl)cc1)C2 [Cpd B179]
EC50: 0.0161 µM

COc1ccc(CNC(=O)N2CC3(CN(Cc4ncccc4C)C3)C2)cc1 [Cpd B180]
EC50: < 0.00019 µM

COc1cccc(CN2CC3(C2)CN(C(=O)NCc2ccc(F)cc2)C3)c1 [Cpd B181]
EC50: 0.00498 µM

COc1cccc(CN2CC3(C2)CN(C(=O)NC2CCCC2)C3)c1 [Cpd B183]
EC50: < 0.00019 µM

COc1cccc(CN2CC3(C2)CN(C(=O)NCC2CCCCC2)C3)c1 [Cpd B184]
EC50: 0.00512 µM

COc1cccc(CN2CC3(C2)CN(C(=O)Nc2ccc(Cl)cc2)C3)c1 [Cpd B185]
EC50: 0.0178 µM

COc1cccc(CN2CC3(C2)CN(C(=O)Nc2ccc(OC(F)F)cc2)C3)c1 [Cpd B186]
EC50: 0.034 µM

O=C(Nc1ccc(Cl)cc1)N1CC2(CN(Cc3ccc(F)cc3)C2)C1 [Cpd B187]
EC50: 0.00915 µM

O=C(NCc1ccc(F)cc1)N1CC2(CN(Cc3ccc(F)cc3)C2)C1 [Cpd B188]
EC50: 0.053 µM

O=C(Nc1cccc(C(F)(F)F)c1)N1CC2(CN(Cc3ccc(F)cc3)C2)C1 [Cpd B189]
EC50: 0.0106 µM

O=C(NC12CC(F)(C1)C2)N1CC2(CN(Cc3ccc(F)cc3)C2)C1 [Cpd B190, 6-(4-fluorobenzyl)-N-(3-fluorobicyclo[1.1.1]pentan-1-yl)-2,6-diazaspiro[3.3]heptane-2-carboxamide]
EC50: 0.491 µM

Cc1ccc(CN2CC3(C2)CN(C(=O)NCc2ccc(F)cc2)C3)o1 [Cpd B191, N-(4-fluorobenzyl)-6-((2-methyl-furan-5-yl)methyl)-2,6-diazaspiro[3.3]heptane-2-carboxamide]
EC50: 0.144 µM

Cc1csc(CN2CC3(C2)CN(C(=O)NCc2ccc(F)cc2)C3)c1 [Cpd B192]
EC50: 0.141 µM

Cc1nc(CN2CC3(C2)CN(C(=O)NCC2CCC(F)(F)CC2)C3)cs1 [Cpd B194]
EC50: 0.264 µM

O=C(NCC1CCC(F)(F)CC1)N1CC2(CN(Cc3ncccc3Cl)C2)C1 [Cpd B196]
EC50: 0.0125 µM

O=C(NCC1CCC(F)(F)CC1)N1CC2(CN(Cc3ncccc3C(F)(F)F)C2)C1 [Cpd B197]
EC50: 0.0128 µM

Cc1cccnc1CN1CC2(C1)CN(C(=O)NCC1CCC(F)(F)CC1)C2 [Cpd B198]
EC50: 0.0165 µM

O=C(NCC1CCC(F)(F)CC1)N1CC2(CN(Cc3ncccc3F)C2)C1 [Cpd B199]
EC50: 0.0539 µM

O=C(NCC1CCC(F)(F)CC1)N1CC2(CN(Cc3ccc(C(F)(F)F)cc3)C2)C1 [Cpd B200]
EC50: 0.0293 µM

O=C(NCC1CCC(F)(F)CC1)N1CC2(CN(Cc3ccc(F)cc3C(F)(F)F)C2)C1 [Cpd B201]
EC50: 0.00355 µM

Cn1cc(Cl)c(CN2CC3(C2)CN(C(=O)NCC2CCC(F)(F)CC2)C3)n1 [Cpd B202]
EC50: 0.0141 µM

Cc1c(Cl)c(CN2CC3(C2)CN(C(=O)NCC2CCC(F)(F)CC2)C3)nn1C [Cpd B203]
EC50: 0.0155 µM

Cn1cc(CN2CC3(C2)CN(C(=O)NCC2CCC(F)(F)CC2)C3)c(Cl)n1 [Cpd B204]
EC50: 0.0549 µM
